Molecular target: T1, serotonin 5-HT2 receptors (Rattus norvegicus, UniProt P14842)
T1 construct: Rat cortical synaptosomal membranes were prepared on the day of assay; from tissue; host or cells: rat frontal cortex synaptosomal membranes
Assay: In Vitro Serotonin (5-HT2) Receptor Binding, [3H]ketanserin
Settings: […], read-out: Serotonin 5-HT2 [3H]ketanserin, % @ 1 μM
Protocol: The potency of compounds to inhibit the specific binding of [^3 H]ketanserin (84.2 Ci/mM) to serotonin 5-HT2 receptors was determined as detailed previously [J. E. Leysen, C. J. E. Niemegers, J. M. Van Neuten and P. M. Laduron, Mol. Pharmacol., 21, 301-314 (1982)]. Rat cortical synaptosomal membranes were prepared on the day of assay. Animals were sacrified by decapitation, the frontal cortex was removed and homogenized in 10 volumes (w/v) of ice-cold 0.32M sucrose using a motor driven teflon pestle fitted to a glass tube. The synaptosomal pellet was suspended in 50 mM Tris HCl (pH 7.6 at 25° C.) to a concentration of 7.5 mg original wet weight/mL. For the binding reaction, 400 μL of this tissue suspension was added to polypropylene tubes containing 50 mM Tris HCl and [^3 H]ketanserin (final concentration of 1 nM) in a final assay volume of 0.5 mL. Following a 15 minute incubation at 37° C., the binding reaction was terminated by rapid vacuum filtration over Whatman GF/B filters (presoaked in 0.1% PEI) followed by 3×4 mL washes with ice cold 50 mM Tris HCl. Nonspecific binding was assessed in the presence of 10 μM methysergide. All incubations were performed in triplicate. IC50 values were determined using log logit analysis.

T1 sequence (P14842 whole entry): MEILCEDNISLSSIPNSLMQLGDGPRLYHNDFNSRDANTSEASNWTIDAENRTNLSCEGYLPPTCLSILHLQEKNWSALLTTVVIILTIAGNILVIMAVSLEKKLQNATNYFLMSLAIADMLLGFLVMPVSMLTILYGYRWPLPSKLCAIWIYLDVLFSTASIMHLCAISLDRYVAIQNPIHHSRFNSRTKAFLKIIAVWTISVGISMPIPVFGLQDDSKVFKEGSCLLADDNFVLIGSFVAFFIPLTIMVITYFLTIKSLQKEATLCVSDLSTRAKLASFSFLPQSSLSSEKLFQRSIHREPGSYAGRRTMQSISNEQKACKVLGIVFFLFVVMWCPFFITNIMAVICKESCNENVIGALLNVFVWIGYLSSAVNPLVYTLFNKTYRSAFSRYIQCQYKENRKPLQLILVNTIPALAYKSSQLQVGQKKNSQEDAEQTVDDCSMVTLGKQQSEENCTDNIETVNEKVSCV

Structure (SMILES)	inhibition at 1 µM
CC(CCc1ccccc1)N1C2CCC1c1c([nH]c3ccccc13)C2 (single isomer, unassigned) [1 (low Rf) H H CH(CH3)(CH2)2 Ph 2]	72.8%
Clc1ccc(CCN2C3CCC2c2c([nH]c4ccccc24)C3)cc1Cl (stereo not shown) [1 H H (CH2)2 3,4-Cl2 Ph 2]	6.7%
C=CCCN1C2CCC1c1c([nH]c3ccccc13)C2 (stereo not shown) [1 H H (CH2)2 CHCH2 2]	12.3%
c1ccc(C(CCN2C3CCC2c2c([nH]c4ccccc24)C3)c2ccccc2)cc1 (stereo not shown) [1 H H (CH2)2 CHPh2 2]	27.3%
c1ccc(CCN2C3CCC2c2c([nH]c4ccccc24)C3)cc1 (stereo not shown) [1 H H (CH2)2 Ph 2]	8.8%
O=C1CC2(CCCC2)CC(=O)N1CCCCN1C2CCC1c1c([nH]c3ccccc13)C2 (stereo not shown) [1 H H (CH2)4 [drawing 3] 2]	12%
c1ccc2c3c([nH]c2c1)CC1CCC3N1 (stereo not shown) [1 H H -- H 2]	0.2%
c1ccc(CN2C3CCC2c2c([nH]c4ccccc24)C3)cc1 (stereo not shown) [1 H H CH2 Ph 2]	22.4%
C(=C\c1ccccc1)/CN1C2CCC1c1c([nH]c3ccccc13)C2 (stereo not shown) [1 H H E-CH2 CHCH Ph 2]	36.6%
CN1C2CCC1c1c([nH]c3ccccc13)C2 (stereo not shown) [3 H H -- CH3 2]	26.4%
Fc1ccc2[nH]c3c(c2c1)C1CCC(C3)N1CCCc1cccnc1 (stereo not shown) [4 F H (CH2)3 3-pyridyl 2]	0%
Fc1ccc2[nH]c3c(c2c1)C1CCC(C3)N1 (stereo not shown) [4 F H -- H 2]	28.2%
Fc1ccc2[nH]c3c(c2c1)C1CCC(C3)N1Cc1ccccc1I (stereo not shown) [4 F H CH2 2-IPh 2]	0%
Fc1ccc2[nH]c3c(c2c1)C1CCC(C3)N1Cc1ccccc1 (stereo not shown) [4 F H CH2 Ph 2]	3.3%
CC(C)n1c2c(c3ccccc31)C1CCC(C2)N1CCCCc1ccccc1 (stereo not shown) [5 H 2-Pr (CH2)4 Ph 2]	46%
c1ccc(CCN2C3CCC2c2c(n(Cc4ccccc4)c4ccccc24)C3)cc1 (stereo not shown) [5 H Bn (CH2)2 Ph 2]	23.3%
Cn1c2c(c3ccccc31)C1CCC(C2)N1CCCCc1ccccc1 (stereo not shown) [5 H CH3 (CH2)4 Ph 2]	49%
Clc1ccc(OCCN2C3CCC2c2c([nH]c4ccccc24)C3)cc1Cl (stereo not shown) [7 H H (CH2)2 O-3,4-Cl2 Ph 2]	48.9%

Same assay, conditions: […], read-out: Serotonin 5-HT2 [3H]ketanserin, value @ 1 μM

Structure (SMILES)	inhibition at 1 µM
OCCCN1C2CCC1c1c([nH]c3ccc(F)cc13)C2 (stereo not shown) [4 F H (CH2)3 OH 2]	5.6%
O=C1c2ccccc2C(=O)N1CCN1C2CCC1c1c([nH]c3ccccc13)C2 (stereo not shown) [6 H H (CH2)2 2-phthalimido 2]	5.3%

Molecular target: T2, sigma receptor ([3H](+)-3-PPP site) (Cavia porcellus, UniProt Q60492)
T2 construct: frozen guinea pig brains; tissue PelFreez Biologicals, Rogers, AK; host or cells: guinea pig brain membranes
Assay: In Vitro Sigma Receptor Binding, [3H](+)-3-PPP
Design: species or system guinea pig
Settings: guinea pig brain; 45 minutes at 25° C.; read-out: Sigma [3H](+)-3-PPP binding IC50
Protocol: (§1) For both assays frozen guinea pig brains (PelFreez Biologicals, Rogers, AK) were thawed and homogenized in 10 volumes (w/v) of ice cold 0.32M sucrose using 10 strokes of a motor-drivenglass-fitted teflon pestle adjusted to 600 rpm. The homogenate was centrifuged (4° C.) at 900× g for 10 minutes and the resultant supernatant collected and centrifuged at 22,000×g for 20 minutes. The pellet obtained from the centrifugation was resuspended in 10 volumes of 50 mM Tris HCl (pH 7.4, 25° C.) and incubated for 30 minutes at 37° C. Following the preincubation, the homogenate was centrifuted at 22,000×g for 20 minutes and the final pellet was resuspended in buffer to a protein concentration of 0.5-1.0 mg/mL for use in the assay.
(§2) Binding reactions were initiated by the addition of tissue (800 μL) to tubes containing assay buffer, the radioligand (final concentration 1-3 nM) and the compound of interest. Haloperidol (10 μM) and (+)-3-PPP (10 μM) were used to determine the levels of […] [^3 H]DTG and [^3 H](+)PPP binding, respectively. Final assay volume was 1 mL. Reactions were allowed to proceed for 45 minutes at 25° C. and terminated by rapid filtration over Whatman GF/B filters which were washed 3 times with 5 mL of cold buffer. Radioactivity trapped on the filters was determined using routine methods. […] All assays were performed using triplicate determinations. For comparison purposes, IC50 values are reported rather than Ki values.

T2 sequence (Q60492 whole entry): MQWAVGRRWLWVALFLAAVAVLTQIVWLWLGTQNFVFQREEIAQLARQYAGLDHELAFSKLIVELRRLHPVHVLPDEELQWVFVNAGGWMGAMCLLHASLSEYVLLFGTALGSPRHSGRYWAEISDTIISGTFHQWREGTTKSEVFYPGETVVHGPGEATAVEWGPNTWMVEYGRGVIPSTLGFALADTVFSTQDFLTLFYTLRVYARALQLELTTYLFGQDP

Structure (SMILES)	IC50
CC(CCc1ccccc1)N1C2CCC1c1c([nH]c3ccccc13)C2 (single isomer, unassigned) [1 (low Rf) H H CH(CH3)(CH2)2 Ph 2]	1160 nM
c1ccc2c3c([nH]c2c1)CC1CCC3N1 (stereo not shown) [1 H H -- H 2]	2180 nM
OCCCN1C2CCC1c1c([nH]c3ccc(F)cc13)C2 (stereo not shown) [4 F H (CH2)3 OH 2]	1380 ± 188 nM
Fc1ccc2[nH]c3c(c2c1)C1CCC(C3)N1Cc1ccccc1 (stereo not shown) [4 F H CH2 Ph 2]	908 ± 222 nM
CC(C)n1c2c(c3ccccc31)C1CCC(C2)N1CCCCc1ccccc1 (stereo not shown) [5 H 2-Pr (CH2)4 Ph 2]	705 ± 20 nM

Molecular target: sigma receptor ([3H]DTG site)
Assay: In Vitro Sigma Receptor Binding, [3H]DTG
Settings: guinea pig brain; 45 minutes at 25° C.
Protocol: as §1, §2

Structure (SMILES)	IC50
CC(CCc1ccccc1)N1C2CCC1c1c([nH]c3ccccc13)C2 (single isomer, unassigned) [1 (low Rf) H H CH(CH3)(CH2)2 Ph 2]	119 nM
OCCCN1C2CCC1c1c([nH]c3ccc(F)cc13)C2 (stereo not shown) [4 F H (CH2)3 OH 2]	317 ± 49 nM
Fc1ccc2[nH]c3c(c2c1)C1CCC(C3)N1Cc1ccccc1 (stereo not shown) [4 F H CH2 Ph 2]	86 ± 14 nM
CC(C)n1c2c(c3ccccc31)C1CCC(C2)N1CCCCc1ccccc1 (stereo not shown) [5 H 2-Pr (CH2)4 Ph 2]	231 nM

Molecular target: T3, dopamine (D-2) receptors (Rattus norvegicus, UniProt P61169)
T3 construct: the corpus striatum was dissected and homogenized; from tissue; host or cells: rat corpus striatum membranes
Assay: In Vitro Dopamine (D-2) Receptor Binding, [3H]sulpiride
Settings: Dopamine D-2 [3H]sulpiride Ki, rat corpus striatum; 3 nM [3H]sulpiride
Protocol: On the day of assay, rats were sacrificed by decapitation, the corpus striatum was dissected and homogenized in 20 volumes of ice-cold 50 mM Tris HCl (pH 7.5, 25° C.). The homogenate was centrifuged (4° C.) at 48,000×g for 10 minutes and the resulting pellet was resuspended in 20 volumes of fresh buffer and recentrifuged. […] A portion of the suspension (800 μL) was added in triplicate to tubes containing 3 nM [^3 H]sulpiride and the test compound. The final assay volume was 1 mL; haloperidol (10 μM) was used to determine non-specific binding. Following a 60 minute incubation at 25° C., the reactions were terminated by rapid filtration over Whatman GF/B filters which had been pretreated in a solution of 0.3% (w/v) of aqueous polyethylenimine. Filters were washed three times using 5 mL of ice-cold buffer and processed using standard procedures to determine radioactivity. IC50 values were obtained from concentration-response curves in which a number of concentrations of test compound were examined. Ki values were determined using the Cheng-Prusoff equation.

T3 sequence (P61169 whole entry): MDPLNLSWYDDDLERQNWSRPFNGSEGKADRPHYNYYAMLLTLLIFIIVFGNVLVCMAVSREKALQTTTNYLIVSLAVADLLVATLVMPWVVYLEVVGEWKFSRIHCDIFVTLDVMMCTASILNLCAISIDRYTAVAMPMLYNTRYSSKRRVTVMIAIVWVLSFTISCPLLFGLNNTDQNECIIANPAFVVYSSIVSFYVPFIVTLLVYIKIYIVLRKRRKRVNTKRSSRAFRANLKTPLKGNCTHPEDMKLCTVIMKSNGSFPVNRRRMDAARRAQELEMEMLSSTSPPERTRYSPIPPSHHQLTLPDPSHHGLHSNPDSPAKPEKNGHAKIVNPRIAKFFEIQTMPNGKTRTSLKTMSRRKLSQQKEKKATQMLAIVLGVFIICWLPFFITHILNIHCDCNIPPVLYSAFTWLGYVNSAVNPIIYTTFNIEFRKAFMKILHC

Structure (SMILES)	Ki
O=C1CC2(CCCC2)CC(=O)N1CCCCN1C2CCC1c1c([nH]c3ccccc13)C2 (stereo not shown) [1 H H (CH2)4 [drawing 3] 2]	2380 ± 560 nM

Same assay, conditions: rat corpus striatum; 3 nM [3H]sulpiride; read-out: Dopamine D-2 [3H]sulpiride Ki

Structure (SMILES)	Ki
CC(CCc1ccccc1)N1C2CCC1c1c([nH]c3ccccc13)C2 (single isomer, unassigned) [1 (low Rf) H H CH(CH3)(CH2)2 Ph 2]	530 nM
Clc1ccc(CCN2C3CCC2c2c([nH]c4ccccc24)C3)cc1Cl (stereo not shown) [1 H H (CH2)2 3,4-Cl2 Ph 2]	3430 nM
C=CCCN1C2CCC1c1c([nH]c3ccccc13)C2 (stereo not shown) [1 H H (CH2)2 CHCH2 2]	710 nM
c1ccc(C(CCN2C3CCC2c2c([nH]c4ccccc24)C3)c2ccccc2)cc1 (stereo not shown) [1 H H (CH2)2 CHPh2 2]	4520 nM
c1ccc(CCN2C3CCC2c2c([nH]c4ccccc24)C3)cc1 (stereo not shown) [1 H H (CH2)2 Ph 2]	840 nM
c1ccc2c3c([nH]c2c1)CC1CCC3N1 (stereo not shown) [1 H H -- H 2]	100000 nM
c1ccc(CN2C3CCC2c2c([nH]c4ccccc24)C3)cc1 (stereo not shown) [1 H H CH2 Ph 2]	3650 nM
C(=C\c1ccccc1)/CN1C2CCC1c1c([nH]c3ccccc13)C2 (stereo not shown) [1 H H E-CH2 CHCH Ph 2]	2460 nM
CN1C2CCC1c1c([nH]c3ccccc13)C2 (stereo not shown) [3 H H -- CH3 2]	16700 ± 6000 nM
Fc1ccc2[nH]c3c(c2c1)C1CCC(C3)N1CCCc1cccnc1 (stereo not shown) [4 F H (CH2)3 3-pyridyl 2]	12200 ± 4700 nM
OCCCN1C2CCC1c1c([nH]c3ccc(F)cc13)C2 (stereo not shown) [4 F H (CH2)3 OH 2]	37300 nM
Fc1ccc2[nH]c3c(c2c1)C1CCC(C3)N1 (stereo not shown) [4 F H -- H 2]	36600 nM
Fc1ccc2[nH]c3c(c2c1)C1CCC(C3)N1Cc1ccccc1I (stereo not shown) [4 F H CH2 2-IPh 2]	531000 nM
Fc1ccc2[nH]c3c(c2c1)C1CCC(C3)N1Cc1ccccc1 (stereo not shown) [4 F H CH2 Ph 2]	3740 nM
CC(C)n1c2c(c3ccccc31)C1CCC(C2)N1CCCCc1ccccc1 (stereo not shown) [5 H 2-Pr (CH2)4 Ph 2]	2640 ± 270 nM
c1ccc(CCN2C3CCC2c2c(n(Cc4ccccc4)c4ccccc24)C3)cc1 (stereo not shown) [5 H Bn (CH2)2 Ph 2]	1620 nM
Cn1c2c(c3ccccc31)C1CCC(C2)N1CCCCc1ccccc1 (stereo not shown) [5 H CH3 (CH2)4 Ph 2]	1820 ± 80 nM
O=C1c2ccccc2C(=O)N1CCN1C2CCC1c1c([nH]c3ccccc13)C2 (stereo not shown) [6 H H (CH2)2 2-phthalimido 2]	52100 nM
Clc1ccc(OCCN2C3CCC2c2c([nH]c4ccccc24)C3)cc1Cl (stereo not shown) [7 H H (CH2)2 O-3,4-Cl2 Ph 2]	650 nM

— patent US5250537A, “5,6,7,8,9,10-hexahydro-7 ,10-iminocyclohept[b]indole,-6,7,8,9,10-hexahydro-7,11-imino-5H-cyclooct[ b]indole and substituted derivatives” (Scios Nova Inc., priority 1992, dated 1993)
